One assay addresses T1, mouse RORγ (Mus musculus, UniProt P51450).
T1 construct: mouse RORγ, from Ile251 to Lys516; expressed in transfected cells; host or cells: CHO cells (Chinese hamster ovary), transient co-transfection with pG5-Luc
T1 sequence (P51450 251-516): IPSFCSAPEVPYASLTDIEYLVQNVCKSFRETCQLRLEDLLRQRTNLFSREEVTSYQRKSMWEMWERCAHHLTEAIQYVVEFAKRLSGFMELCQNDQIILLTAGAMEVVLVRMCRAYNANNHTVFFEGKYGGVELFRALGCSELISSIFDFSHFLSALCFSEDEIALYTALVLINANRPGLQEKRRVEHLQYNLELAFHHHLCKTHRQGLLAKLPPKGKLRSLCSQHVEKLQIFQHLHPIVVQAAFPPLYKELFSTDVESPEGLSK
The assay is described as follows: In vitro assay of inhibitory effect against RORγ transcriptional activity (GAL4-mRORγ LBD luciferase reporter gene assay in CHO cells). Format: cell-based. The conditions noted are these: for EC50: GAL4-mRORγ LBD / pG5-Luc in CHO cells, 2 days incubation; for mRORγ luciferase activity, %-of-control: value in parentheses beside the > EC50 bound, vehicle-control 0.2% DMSO alone = 100%. Summed up: (§1)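 Transcriptional activity of human or mouse RORγ LBD, tethered to the GAL4 DNA-binding domain, is monitored by a GAL4-dependent firefly luciferase reporter in transiently transfected CHO cells. Test articles are incubated for 2 days; values are %-of-control or fitted EC50.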
(In general: In a reporter assay the amount or activity of a reporter protein is the signal.)

Another assay concerns the target T2, human RORγ (Homo sapiens, UniProt P51449).
T2 construct: human RORγ, from Ser253 to Lys518; expressed in transfected cells; host or cells: CHO cells (Chinese hamster ovary), transient co-transfection with pG5-Luc
T2 sequence (P51449 253-518): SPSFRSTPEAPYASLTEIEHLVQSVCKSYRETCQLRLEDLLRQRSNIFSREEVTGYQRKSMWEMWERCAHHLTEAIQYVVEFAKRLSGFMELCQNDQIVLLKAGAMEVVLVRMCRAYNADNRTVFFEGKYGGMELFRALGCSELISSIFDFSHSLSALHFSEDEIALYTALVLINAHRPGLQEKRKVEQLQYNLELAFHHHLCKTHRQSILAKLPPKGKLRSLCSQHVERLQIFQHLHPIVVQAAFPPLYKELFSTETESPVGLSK
In words: In vitro assay of inhibitory effect against RORγ transcriptional activity (GAL4-hRORγ LBD luciferase reporter gene assay in CHO cells). Format: cell-based. The settings on record: for EC50: GAL4-hRORγ LBD / pG5-Luc in CHO cells, 2 days incubation; for hRORγ luciferase activity, %-of-control: value in parentheses beside the > EC50 bound, vehicle-control 0.2% DMSO alone = 100%. An outline of the steps: as §1

In general, EC50 refers to the concentration needed to bring the measured effect to its halfway point. Low values mean a more potent agent, high ones a less potent agent. Take `CC(C)C1=CN([C@H]2C[C@@H](C(=O)O)C2)C(=O)N[C@]1(C)c1ccc(CCC(C)(C)C)c(Cl)c1` [Example 45]: the results for the EC50 at mouse RORγ and at human RORγ were 7510 nM and 7330 nM, respectively.
With `CC(C)C1=CN([C@H]2C[C@@H](C(=O)O)C2)C(=O)N[C@@]1(C)c1ccc(CCC(C)(C)C)c(Cl)c1` [Example 46], the EC50 at mouse RORγ came to 16 nM; at human RORγ, 17 nM.
On to `CC(C)C1=CN(CCCCC(=O)O)C(=O)N[C@]1(C)c1ccc(CCC(C)(C)C)c(Cl)c1` [Example 47], for which the EC50 was determined as 764 nM on mouse RORγ and 1100 nM on human RORγ.
As for `CC(C)C1=CN(CCCCC(=O)O)C(=O)N[C@@]1(C)c1ccc(CCC(C)(C)C)c(Cl)c1` [Example 48], the EC50 on mouse RORγ worked out at 16 nM; on human RORγ, 12 nM.
Take `CC(C)C1=CN(CCc2ccc(C(=O)O)cc2)C(=O)N[C@]1(C)c1ccc(CCC(C)(C)C)c(Cl)c1` [Example 49]: the values for the EC50 on mouse RORγ and on human RORγ were 832 nM and 983 nM, respectively.
For `CC(C)C1=CN(CCc2ccc(C(=O)O)cc2)C(=O)N[C@@]1(C)c1ccc(CCC(C)(C)C)c(Cl)c1` [Example 50], the figures for the EC50 on mouse RORγ and on human RORγ were 13 nM and 7 nM, respectively.
Regarding `CC(C)(C)CCc1ccc([C@@]2(C)NC(=O)N(CCCC(=O)O)C=C2C2(C)CC2)cc1Cl` [Example 51], the EC50 on mouse RORγ was found to be 1080 nM; at human RORγ, 1180 nM.
`CC(C)(C)CCc1ccc([C@]2(C)NC(=O)N(CCCC(=O)O)C=C2C2(C)CC2)cc1Cl` [Example 52]: the EC50 is 15 nM at mouse RORγ and 10 nM on human RORγ.
As for `CC(C)C1=CN(CCC(C)(C)C(=O)O)C(=O)N[C@]1(C)c1ccc(CCC(C)(C)C)c(Cl)c1` [Example 54], on mouse RORγ, the EC50 is greater than 8000 nM and the “mRORγ luciferase activity, %-of-control” value is recorded as “(81%)”. In addition, at human RORγ, the EC50 was greater than 8000 nM and the “hRORγ luciferase activity, %-of-control” value is “(92%)”.
As for `CC(C)C1=CN(CCC(C)(C)C(=O)O)C(=O)N[C@@]1(C)c1ccc(CCC(C)(C)C)c(Cl)c1` [Example 55], the values for the EC50 at mouse RORγ and at human RORγ were 26 nM and 22 nM, respectively.
In the case of `CC(C)(C)CCc1ccc([C@@]2(C)NC(=O)N(CCCC(=O)O)C=C2C2CC2)cc1Cl` [Example 56], the EC50 stood at 4290 nM at mouse RORγ and 5160 nM at human RORγ.
In the case of `CC(C)(C)CCc1ccc([C@]2(C)NC(=O)N(CCCC(=O)O)C=C2C2CC2)cc1Cl` [Example 57], the figures for the half-maximal effective concentration (EC50) on mouse RORγ and on human RORγ were 22 nM and 31 nM, respectively.
For `CC(C)(C)CCc1ccc([C@@]2(C)NC(=O)N(CCCC(=O)O)C=C2C2CCC2)cc1Cl` [Example 58], the results for the EC50 at mouse RORγ and on human RORγ were 1650 nM and 1250 nM, respectively.
For the molecule `CC(C)(C)CCc1ccc([C@]2(C)NC(=O)N(CCCC(=O)O)C=C2C2CCC2)cc1Cl` [Example 59], the 50% effective concentration (EC50) on mouse RORγ was 20 nM; on human RORγ, 12 nM.
As to `CC1=CN(CCCC(=O)O)C(=O)N[C@]1(C)c1ccc(CCC(C)(C)C)c(Cl)c1` [Example 60], the results for the concentration for a half-maximal effect (EC50) at mouse RORγ and at human RORγ were 12400 nM and 15300 nM, respectively.
The corresponding values for `CC1=CN(CCCC(=O)O)C(=O)N[C@@]1(C)c1ccc(CCC(C)(C)C)c(Cl)c1` [Example 61] are 46 nM and 143 nM.
As to `CC(C)C1=CN([C@H]2CC[C@@H](C(=O)O)CC2)C(=O)N[C@]1(C)c1ccc(CCC(C)(C)C)c(Cl)c1` [Example 66], the EC50 was 2680 nM on mouse RORγ and 3610 nM on human RORγ.
As for `CC(C)C1=CN([C@H]2CC[C@@H](C(=O)O)CC2)C(=O)N[C@@]1(C)c1ccc(CCC(C)(C)C)c(Cl)c1` [Example 67], the EC50 on mouse RORγ stood at 17 nM; at human RORγ it was 23 nM.
Turning to `CCC1=CN(CCCC(=O)O)C(=O)N[C@]1(C)c1ccc(CCC(C)(C)C)c(Cl)c1` [Example 68], the values for the EC50 on mouse RORγ and at human RORγ were 1760 nM and 1240 nM, respectively.
As for `CCC1=CN(CCCC(=O)O)C(=O)N[C@@]1(C)c1ccc(CCC(C)(C)C)c(Cl)c1` [Example 69], the EC50 on mouse RORγ was determined as 17 nM; on human RORγ, 20 nM.
Take `CC(C)C1=CN(CCC2(C(=O)O)CC2)C(=O)N[C@]1(C)c1ccc(CCC(C)(C)C)c(Cl)c1` [Example 71]: the EC50 came out at 758 nM on mouse RORγ and 505 nM on human RORγ.
As to `CC(C)C1=CN(CCC2(C(=O)O)CC2)C(=O)N[C@@]1(C)c1ccc(CCC(C)(C)C)c(Cl)c1` [Example 72], the EC50 stood at 17 nM at mouse RORγ and 13 nM on human RORγ.
As for `CC(C)C1=CN(C(C)CCC(=O)O)C(=O)NC1(C)c1ccc(CCC(C)(C)C)c(Cl)c1` (stereo not shown) [Example 73], the values for the concentration for a half-maximal effect (EC50) on mouse RORγ and on human RORγ were 657 nM and 803 nM, respectively.
The corresponding values for `CC(C)C1=CN(CCCC(C)(C)C(=O)O)C(=O)N[C@]1(C)c1ccc(CCC(C)(C)C)c(Cl)c1` [Example 74] are 1100 nM and 986 nM.
As to `CC(C)C1=CN(CCCC(C)(C)C(=O)O)C(=O)N[C@@]1(C)c1ccc(CCC(C)(C)C)c(Cl)c1` [Example 75], the EC50 on mouse RORγ turned out to be 316 nM; on human RORγ it was 296 nM.
Regarding `CC(C)C1=CN(C23CC(C(=O)O)(C2)C3)C(=O)N[C@]1(C)c1ccc(CCC(C)(C)C)c(Cl)c1` [Example 76], the EC50 was determined as 6360 nM on mouse RORγ and 3470 nM at human RORγ.
For the molecule `CC(C)C1=CN(C23CC(C(=O)O)(C2)C3)C(=O)N[C@@]1(C)c1ccc(CCC(C)(C)C)c(Cl)c1` [Example 77], the values for the EC50 on mouse RORγ and at human RORγ were 24 nM and 15 nM, respectively.
For the molecule `CC(C)C1=CN([C@H]2CC[C@H](C(=O)O)CC2)C(=O)N[C@]1(C)c1ccc(CCC(C)(C)C)c(Cl)c1` [Example 78], the EC50 at mouse RORγ was 10800 nM; on human RORγ, 6490 nM.
For `CC(C)C1=CN([C@H]2CC[C@H](C(=O)O)CC2)C(=O)N[C@@]1(C)c1ccc(CCC(C)(C)C)c(Cl)c1` [Example 79], the EC50 on mouse RORγ came to 18 nM; at human RORγ it was 16 nM.
The corresponding values for `CC(C)C1=CN(CCc2ccccc2C(=O)O)C(=O)N[C@]1(C)c1ccc(CCC(C)(C)C)c(Cl)c1` [Example 82] are 790 nM and 980 nM.
The corresponding values for `CC(C)C1=CN(CCc2ccccc2C(=O)O)C(=O)N[C@@]1(C)c1ccc(CCC(C)(C)C)c(Cl)c1` [Example 83] are 43 nM and 40 nM.
Turning to `CC(C)C1=CN(CCC(=O)O)C(=O)N[C@]1(C)c1ccc(CCC(C)(C)C)c(Cl)c1` [Example 86, 3-{(R)-4-[3-Chloro-4-(3,3-dimethyl-butyl)-phenyl]-5-isopropyl-4-methyl-2-oxo-3,4-dihydro-2H-pyrimidin-1-yl}-propionic Acid], on mouse RORγ, the concentration for a half-maximal effect (EC50) is greater than 8000 nM and the “mRORγ luciferase activity, %-of-control” value is recorded as “(51%)”. On human RORγ, this molecule registered an EC50 of 6770 nM.
Regarding `CC(C)C1=CN(CCC(=O)O)C(=O)N[C@@]1(C)c1ccc(CCC(C)(C)C)c(Cl)c1` [Example 87, 3-{(S)-4-[3-Chloro-4-(3,3-dimethyl-butyl)-phenyl]-5-isopropyl-4-methyl-2-oxo-3,4-dihydro-2H-pyrimidin-1-yl}-propionic Acid], the EC50 at mouse RORγ was found to be 15 nM; at human RORγ it was 11 nM.
Turning to `CC(C)C1=CN(CC[C@@H](O)C(=O)O)C(=O)N[C@]1(C)c1ccc(CCC(C)(C)C)c(Cl)c1` [Example 88], the EC50 at mouse RORγ amounted to 422 nM; on human RORγ, 443 nM.
As for `CC(C)C1=CN(CC[C@@H](O)C(=O)O)C(=O)N[C@@]1(C)c1ccc(CCC(C)(C)C)c(Cl)c1` [Example 89], the concentration for a half-maximal effect (EC50) on mouse RORγ and at human RORγ was 16 nM in each case.
As for `CC(C)(C)CCc1ccc([C@@]2(C)NC(=O)N(CCCC(=O)O)C=C2C2CCOCC2)cc1Cl` [Example 91], the EC50 on mouse RORγ is 1150 nM; on human RORγ, 539 nM.
The corresponding values for `CC(C)(C)CCc1ccc([C@]2(C)NC(=O)N(CCCC(=O)O)C=C2C2CCOCC2)cc1Cl` [Example 92] are 20 nM and 13 nM.
The corresponding values for `CC(C)C1=CN(CC(=O)O)C(=O)N[C@]1(C)c1ccc(CCC(C)(C)C)c(Cl)c1` [Example 93] are 2540 nM and 2140 nM.
The corresponding values for `CC(C)C1=CN(CC(=O)O)C(=O)N[C@@]1(C)c1ccc(CCC(C)(C)C)c(Cl)c1` [Example 94] are 142 nM and 152 nM.
For `CC(C)(C)CCc1ccc([C@@]2(C)NC(=O)N([C@H]3C[C@H](C(=O)O)C3)C=C2C2CC(F)(F)C2)cc1Cl` [Example 95], the EC50 on mouse RORγ turned out to be 5680 nM. Further, at human RORγ, the EC50 was greater than 3200 nM and the “hRORγ luciferase activity, %-of-control” value is given as “(66%)”.
`CC(C)(C)CCc1ccc([C@]2(C)NC(=O)N([C@H]3C[C@H](C(=O)O)C3)C=C2C2CC(F)(F)C2)cc1Cl` [Example 96]: the EC50 on mouse RORγ came to 26 nM; on human RORγ, 33 nM.
Regarding `CC(C)C1=CN(CC2(C(=O)O)CC2)C(=O)N[C@]1(C)c1ccc(CCC(C)(C)C)c(Cl)c1` [Example 97], the EC50 at mouse RORγ turned out to be 3100 nM; on human RORγ, 1340 nM.
